Series [1] concerns the target T1, hMOR (Homo sapiens, UniProt P35372). The series can be described thus: biochemical. The class given is binding.
In series [2] the target is T2, hKOR (Homo sapiens, UniProt P41145). The series can be described thus: biochemical. The class given is binding.
Series [3] has as its target T1, hMOR. Description: GTPγS functional assay, MOR. Type of series: biochemical.
Series [4] concerns the target T2, hKOR. The series can be described thus: biochemical. The class given is biochemical.
For series [5], the system named is male C57BL/6NHsd mice. The conditions noted are these: mouse, in vivo.
In series [6] the test system is male C57BL/6NHsd mice. The conditions noted are these: mouse, in vivo. The source holds these as a separate data set.
Series [7] addresses T3, hDOR (Homo sapiens, UniProt P41143). The series can be described thus: Competitive radioligand binding assay, DOR.
Series [8] relates to male C57BL/6NHsd mice. The conditions noted are these: mouse, in vivo. The source holds these as a separate data set.
For series [9], the target named is T3, hDOR. Description: GTPγS functional assay, DOR. Type of series: biochemical.

The structures appear in SMILES notation. Marks after values point to notes of the source that are not given here.

T2 sequence (P41145 whole entry): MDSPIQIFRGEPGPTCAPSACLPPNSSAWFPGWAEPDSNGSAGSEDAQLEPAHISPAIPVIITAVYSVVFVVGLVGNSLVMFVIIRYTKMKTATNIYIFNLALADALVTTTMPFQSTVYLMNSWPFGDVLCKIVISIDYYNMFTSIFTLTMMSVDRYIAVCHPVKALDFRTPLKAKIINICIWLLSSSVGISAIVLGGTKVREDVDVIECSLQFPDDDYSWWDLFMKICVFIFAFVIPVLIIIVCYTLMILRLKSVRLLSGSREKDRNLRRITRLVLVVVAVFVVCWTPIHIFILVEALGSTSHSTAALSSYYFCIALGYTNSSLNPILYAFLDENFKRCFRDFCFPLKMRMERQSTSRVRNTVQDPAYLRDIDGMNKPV
T1 sequence (P35372 whole entry): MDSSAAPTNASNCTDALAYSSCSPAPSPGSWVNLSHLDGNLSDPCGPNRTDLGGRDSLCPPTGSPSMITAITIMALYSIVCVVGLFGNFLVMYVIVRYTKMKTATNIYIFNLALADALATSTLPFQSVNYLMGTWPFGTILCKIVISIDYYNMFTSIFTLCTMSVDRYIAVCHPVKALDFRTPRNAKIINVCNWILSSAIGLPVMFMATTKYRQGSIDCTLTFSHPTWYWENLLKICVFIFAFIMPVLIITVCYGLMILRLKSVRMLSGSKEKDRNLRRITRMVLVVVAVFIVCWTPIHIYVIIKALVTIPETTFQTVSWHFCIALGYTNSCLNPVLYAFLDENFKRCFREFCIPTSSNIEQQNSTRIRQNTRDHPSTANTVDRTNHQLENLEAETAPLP
T3 sequence (P41143 whole entry): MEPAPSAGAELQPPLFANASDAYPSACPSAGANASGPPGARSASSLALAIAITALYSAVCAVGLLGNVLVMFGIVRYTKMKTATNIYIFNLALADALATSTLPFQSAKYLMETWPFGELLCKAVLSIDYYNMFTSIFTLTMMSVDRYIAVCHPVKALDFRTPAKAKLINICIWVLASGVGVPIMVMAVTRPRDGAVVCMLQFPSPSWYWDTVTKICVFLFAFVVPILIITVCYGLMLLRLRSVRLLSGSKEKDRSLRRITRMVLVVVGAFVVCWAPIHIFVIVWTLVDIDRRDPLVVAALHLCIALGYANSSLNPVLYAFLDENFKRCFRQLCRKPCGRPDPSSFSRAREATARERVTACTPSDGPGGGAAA

On to `COC(=O)[C@@H]1C[C@H](OC(=O)c2cc3ccc(F)cc3[nH]2)C(=O)[C@H]2[C@@]1(C)CC[C@H]1C(=O)O[C@H](c3ccoc3)C[C@]21C` [Compound 9, (2S,4aR,6aR,7R,9S,10aS,10bR)-2-(furan-3-yl)-7-(methoxycarbonyl)-6a,10b-dimethyl-4,10-dioxododecahydro-2H-benzo[f]isochromen-9-yl 6-fluoro-1H-indole-2-carboxylate], for which the results for the Kd on hMOR [1] and on hKOR [2] were 39.7 nM and 17 nM, respectively. Besides, the EC50 on hMOR [3] is 973 nM; at hKOR [4], 419 nM. For the same molecule, on hKOR [4], the “Full or partial agonist (KOR)” value was 419 (240–729)^[c].
Turning to `COC(=O)[C@@H]1C[C@H](OC(=O)c2nc3ccccc3s2)C(=O)[C@H]2[C@@]1(C)CC[C@H]1C(=O)O[C@H](c3ccoc3)C[C@]21C` [Compound 11, (2S,4aR,6aR,7R,9S,10aS,10bR)-2-(furan-3-yl)-7-(methoxycarbonyl)-6a,10b-dimethyl-4,10-dioxododecahydro-2H-benzo[f]isochromen-9-yl benzo[d]thiazole-2-carboxylate], at hKOR [2], the Kd came to 91.7 nM and the “binding affinity towards KOR, in words” value is listed as “exhibited selective affinity towards KOR”. On hKOR [4], the response was half-maximal at 294 nM (EC50) and the “Full or partial agonist (KOR)” value is 294 (179–482)^[d].
In the case of `COC(=O)[C@@H]1C[C@H](OC(=O)c2cc3cc(F)ccc3[nH]2)C(=O)[C@H]2[C@@]1(C)CC[C@H]1C(=O)O[C@H](c3ccoc3)C[C@]21C` [Compound 8, (2S,4aR,6aR,7R,9S,10aS,10bR)-2-(furan-3-yl)-7-(methoxycarbonyl)-6a,10b-dimethyl-4,10-dioxododecahydro-2H-benzo[f]isochromen-9-yl 5-fluoro-1H-indole-2-carboxylate], the “binding affinity towards MOR, in words” value on hMOR [1] was “loss of binding affinity to MOR”. This molecule also returned a Kd at hKOR [2] of 97.8 nM. In addition, on hKOR [4], the EC50 came to 1110 nM and the “Full or partial agonist (KOR)” value is 1110 (441–2790)^[c].
The molecule `COC(=O)[C@@H]1C[C@H](OC(=O)c2n[nH]c3ccccc23)C(=O)[C@H]2[C@@]1(C)CC[C@H]1C(=O)O[C@H](c3ccoc3)C[C@]21C` [Compound 5, (2S,4aR,6aR,7R,9S,10aS,10bR)-2-(furan-3-yl)-7-(methoxycarbonyl)-6a,10b-dimethyl-4,10-dioxododecahydro-2H-benzo[f]isochromen-9-yl 1H-indazole-3-carboxylate] displayed a Kd on hMOR [1] of 208 nM. For the same molecule, the EC50 at hMOR [3] is greater than 10000 nM.
In the case of `COC(=O)[C@@H]1C[C@H](OC(=O)[C@@H]2Cc3ccccc3N2)C(=O)[C@H]2[C@@]1(C)CC[C@H]1C(=O)O[C@H](c3ccoc3)C[C@]21C` [Compound 14, (2S,4aR,6aR,7R,9S,10aS,10bR)-2-(furan-3-yl)-7-(methoxycarbonyl)-6a,10b-dimethyl-4,10-dioxododecahydro-2H-benzo[f]isochromen-9-yl (S)-indoline-2-carboxylate], on hMOR [1], the Kd is 77.9 nM. At hKOR [2], binding was put at a Kd of 32.1 nM and the “fold preference towards KOR (binding affinity, KOR vs MOR)” value is ~ 2 fold. Besides, at hMOR [3], the EC50 was greater than 10000 nM. In addition, at hKOR [4], the EC50 was 361 nM and the “Full or partial agonist (KOR)” value was 361 (216–602)^[d].
Take `CN1CC[C@]23c4c5ccc(O)c4O[C@H]2[C@@H](O)C=C[C@H]3[C@H]1C5` [Morphine, reference compound]: the “latency to hind paw lick or flutter compared to vehicle” value with male C57BL/6NHsd mice [5] was “significant increase in the latency to paw response”. Besides, in the series with male C57BL/6NHsd mice [6], the “latency to tail withdrawal compared to vehicle” value was “significantly increased the latency to tail withdrawal”.
On to `COC(=O)[C@@H]1C[C@H](OC(=O)C2Cc3ccccc3C2)C(=O)[C@H]2[C@@]1(C)CC[C@H]1C(=O)O[C@H](c3ccoc3)C[C@]21C` [Compound 3, Methyl-(2S,4aR,6aR,7R,9S,10aS,10bR)-9-((2,3-dihydro-1H-indene-2-carbonyl)oxy)-2-(furan-3-yl)-6a,10b-dimethyl-4,10-dioxododecahydro-2H-benzo[f]isochromene-7-carboxylate], for which the dissociation constant Kd turned out to be 3020 nM on hMOR [1] and 1270 nM at hKOR [2]. Further, the EC50 on hMOR [3] was greater than 10000 nM; at hKOR [4] it was 3000 nM. For the same molecule, on hKOR [4], the “Full or partial agonist (KOR)” value is 3000 (409–22000)^[d].
Consider `COC(=O)[C@@H]1C[C@H](OC(=O)[C@H]2Cc3ccccc3N2)C(=O)[C@H]2[C@@]1(C)CC[C@H]1C(=O)O[C@H](c3ccoc3)C[C@]21C` [Compound 13, (2S,4aR,6aR,7R,9S,10aS,10bR)-2-(furan-3-yl)-7-(methoxycarbonyl)-6a,10b-dimethyl-4,10-dioxododecahydro-2H-benzo[f]isochromen-9-yl (R)-indoline-2-carboxylate], for which the Kd turned out to be 9.04 nM at hMOR [1] and 130 nM at hKOR [2]. Besides, the “fold preference towards MOR (binding affinity, MOR vs KOR)” value at hMOR [1] worked out at 14 fold. The EC50 on hMOR [3] stood at 840 nM; on hKOR [4], 2260 nM. Besides, the “Full or partial agonist (KOR)” value on hKOR [4] is 2260 (1360–3760)^[c].
Consider `COC(=O)[C@@H]1C[C@H](OC(=O)c2nc3ccccc3[nH]2)C(=O)[C@H]2[C@@]1(C)CC[C@H]1C(=O)O[C@H](c3ccoc3)C[C@]21C` [Compound 6, (2S,4aR,6aR,7R,9S,10aS,10bR)-2-(furan-3-yl)-7-(methoxycarbonyl)-6a,10b-dimethyl-4,10-dioxododecahydro-2H-benzo[f]isochromen-9-yl 1H-benzo[d]imidazole-2-carboxylate], for which, at hMOR [1], the Kd is 83.2 nM and the “binding affinity towards MOR, in words” value is listed as “exhibited selective affinity towards MOR”. On hMOR [3], the concentration giving a half-maximal response (EC50) was greater than 10000 nM.
In the case of `COC(=O)[C@@H]1C[C@H](OC(=O)c2nc3ccccc3o2)C(=O)[C@H]2[C@@]1(C)CC[C@H]1C(=O)O[C@H](c3ccoc3)C[C@]21C` [Compound 4, (2S,4aR,6aR,7R,9S,10aS,10bR)-2-(furan-3-yl)-7-(methoxycarbonyl)-6a,10b-dimethyl-4,10-dioxododecahydro-2H-benzo[f]isochromen-9-yl benzo[d]oxazole-2-carboxylate], the “binding affinity towards MOR, in words” value at hMOR [1] is on record as “exhibited no affinity to any of the opioid receptors”. Also, the “binding affinity towards KOR, in words” value at hKOR [2] is “exhibited no affinity to any of the opioid receptors”. On hDOR [7], the “binding affinity towards DOR, in words” value is “exhibited no affinity to any of the opioid receptors”.
In the case of `COC(=O)[C@@H]1C[C@H](OC(=O)c2cc3c(F)cccc3[nH]2)C(=O)[C@H]2[C@@]1(C)CC[C@H]1C(=O)O[C@H](c3ccoc3)C[C@]21C` [Compound 7, (2S,4aR,6aR,7R,9S,10aS,10bR)-2-(furan-3-yl)-7-(methoxycarbonyl)-6a,10b-dimethyl-4,10-dioxododecahydro-2H-benzo[f]isochromen-9-yl 4-fluoro-1H-indole-2-carboxylate], the Kd worked out at 13.1 nM on hMOR [1] and 57.3 nM at hKOR [2]. The results for the EC50 at hMOR [3] and at hKOR [4] were 211 nM and 877 nM, respectively. Also, the “Full or partial agonist (KOR)” value at hKOR [4] is 877 (564–1360)^[d].
Consider `COC(=O)[C@@H]1C[C@H](OC(=O)C2=CCc3ccccc32)C(=O)[C@H]2[C@@]1(C)CC[C@H]1C(=O)O[C@H](c3ccoc3)C[C@]21C` [Compound 1, Methyl-(2S,4aR,6aR,7R,9S,10aS,10bR)-9-((1H-indene-3-carbonyl)oxy)-2-(furan-3-yl)-6a,10b-dimethyl-4,10-dioxododecahydro-2H-benzo[f]isochromene-7-carboxylate], for which the dissociation constant (Kd) at hMOR [1] amounted to 531 nM; on hKOR [2] it was 62.3 nM. In addition, the EC50 is greater than 10000 nM on hMOR [3] and 1570 nM on hKOR [4]. Further, at hKOR [4], the “Full or partial agonist (KOR)” value was 1570 (548–4500)^[c].
Regarding `COC(=O)[C@@H]1C[C@H](OC(=O)c2cc3cccc(F)c3[nH]2)C(=O)[C@H]2[C@@]1(C)CC[C@H]1C(=O)O[C@H](c3ccoc3)C[C@]21C` [Compound 10, (2S,4aR,6aR,7R,9S,10aS,10bR)-2-(furan-3-yl)-7-(methoxycarbonyl)-6a,10b-dimethyl-4,10-dioxododecahydro-2H-benzo[f]isochromen-9-yl 7-fluoro-1H-indole-2-carboxylate], at hMOR [1], binding was characterised by a dissociation constant (Kd) of 58.4 nM. Moreover, at hKOR [2], binding was characterised by a dissociation constant (Kd) of 53.8 nM; the “fold preference towards KOR (binding affinity, KOR vs MOR)” value is “equal binding affinity towards KOR and MOR”. For the same molecule, in the series on male C57BL/6NHsd mice [5], the “latency to hind paw lick or flutter compared to vehicle” value is given as “Neither salivinorin A, herkinorin, nor compound 10 were observed to significantly influence the latency to paw response”. Moreover, in the series with male C57BL/6NHsd mice [6], the “latency to tail withdrawal compared to vehicle” value was “Neither salvinorin A, herkinorin, nor compounds 2 or 10 demonstrated significant antinociception”. Besides, the 50% effective concentration (EC50) on hMOR [3] came out at 132 nM. For the same molecule, at hKOR [4], the half-maximal effective concentration (EC50) came to 36.5 nM, the “Full or partial agonist (KOR)” value was 36.5 (13.6–98.2)^[d] and the “fold higher potency at KOR (vs MOR)” value was ~ 4 fold. In the series with male C57BL/6NHsd mice [8], the “distance traveled in the maze compared to vehicle” value is “reduction in the total distance traveled” and the “time spent in the open arms compared to vehicle” value is on record as “Neither herkinorin nor compound 10 significantly influenced anxiety-like behavior”.
On to `COC(=O)[C@@H]1C[C@H](OC(=O)c2cc3ccccn3c2)C(=O)[C@H]2[C@@]1(C)CC[C@H]1C(=O)O[C@H](c3ccoc3)C[C@]21C` [Compound 12, (2S,4aR,6aR,7R,9S,10aS,10bR)-2-(furan-3-yl)-7-(methoxycarbonyl)-6a,10b-dimethyl-4,10-dioxododecahydro-2H-benzo[f]isochromen-9-yl indolizine-2-carboxylate], for which the Kd on hMOR [1] was found to be 1390 nM; at hKOR [2], 18.4 nM; at hDOR [7], 480 nM. Also, the 50% effective concentration (EC50) on hMOR [3] worked out at 200 nM; at hDOR [9], 742 nM; at hKOR [4] it was 1560 nM. On hKOR [4], the “Full or partial agonist (KOR)” value is 1560 (213–11500)^[c].

By Kd is commonly meant the constant that tells how readily two partners part at equilibrium. Low readings indicate higher affinity, high ones lower affinity. What is called EC50 is the midpoint of the concentration-response curve. Higher therefore signals a need for much substance.

The record behind these values is article PMC9015904 (ChemMedChem, 2022).
